Literature values, collected in US20050192267A1, “Use of targeted oxidative therapeutic formulation in treatment of viral diseases” (priority 2004, published 2005).

What was measured:
[1] = tested on: peroxide-sensitive E. coli; details: infused into the blood of infected rabbits
[2] = tested on: E. coli; details: increasing concentration of peroxide ex-vivo in rabbit or human blood
[3] = tested on: Hepatitis C; details: chronic Hepatitis C; used alone

In the case of `OO` [hydrogen peroxide, Hydrogen peroxide], the bactericidal effect [1] is listed as “no bactericidal effect” and the direct bactericidal activity [2] is listed as “no evidence of direct bactericidal activity”.
For `NC(=O)c1ncn([C@@H]2O[C@H](CO)[C@@H](O)[C@H]2O)n1` [Ribavirin, ribavirin], the effectiveness of treatment [3] is given as “does not appear to be effective”.
